In patent US9187411B2, “Leukotriene B4 antagonist compound” (Eli Lilly and Company, priority 2012, dated 2015) one finds Ki data, which are given here for one molecule.

This assay deals with T1, PPARα (Homo sapiens, UniProt Q07869).
T1 construct: made in house; host or cells: Sf9 insect cells (baculovirus), crude cell lysate
T1 sequence (Q07869 1-468): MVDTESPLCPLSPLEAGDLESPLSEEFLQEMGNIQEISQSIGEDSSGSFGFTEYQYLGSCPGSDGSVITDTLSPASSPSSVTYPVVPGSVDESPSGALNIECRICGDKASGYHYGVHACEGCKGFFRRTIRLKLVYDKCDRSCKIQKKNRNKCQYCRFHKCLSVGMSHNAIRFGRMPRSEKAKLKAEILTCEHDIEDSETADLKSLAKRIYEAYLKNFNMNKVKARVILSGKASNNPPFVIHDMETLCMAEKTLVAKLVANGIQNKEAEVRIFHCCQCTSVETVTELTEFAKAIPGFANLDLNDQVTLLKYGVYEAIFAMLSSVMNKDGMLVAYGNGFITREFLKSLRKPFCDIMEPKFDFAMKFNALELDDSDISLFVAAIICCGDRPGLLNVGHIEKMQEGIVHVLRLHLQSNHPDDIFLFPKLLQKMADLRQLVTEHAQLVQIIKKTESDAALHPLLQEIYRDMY
T1 sequence (P19793 1-462 partner): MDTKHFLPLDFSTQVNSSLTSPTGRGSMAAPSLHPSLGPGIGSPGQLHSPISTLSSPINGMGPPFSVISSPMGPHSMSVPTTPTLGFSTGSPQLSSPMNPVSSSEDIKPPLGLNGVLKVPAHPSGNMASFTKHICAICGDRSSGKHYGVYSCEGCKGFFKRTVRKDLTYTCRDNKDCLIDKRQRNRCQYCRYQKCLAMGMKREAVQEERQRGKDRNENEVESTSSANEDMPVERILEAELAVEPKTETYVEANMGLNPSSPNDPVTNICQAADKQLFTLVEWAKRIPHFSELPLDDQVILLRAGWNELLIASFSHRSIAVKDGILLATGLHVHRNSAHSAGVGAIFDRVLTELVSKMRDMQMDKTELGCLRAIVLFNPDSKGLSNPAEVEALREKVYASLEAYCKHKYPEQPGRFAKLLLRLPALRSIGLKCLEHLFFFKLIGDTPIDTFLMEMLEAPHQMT
As to the kind of experiment: PPAR alpha binding assay (SPA). To be noted: tritiated GW2331, n=3, read-out: Ki PPAR α binding. From the text:
The nucleotide sequences encoding full-length PPARα receptor DNA (National Center for Biotechnology Information (NCBI) Reference Sequence NM_005036.4), PPARδ receptor DNA (NCBI Reference Sequence NM_006238.4), PPARγ receptor DNA (NCBI Reference Sequence NM_015869.4) and Retinoid X Receptor (RXR) α DNA (NCBI Reference Sequence NM_002957.4) are synthesized and inserted into pFastBacHTb (Invitrogen) vector in-framed with the N-terminal HIS tag from the vector. […] The protein concentration is determined by Bradford assay using BSA as the standard.
Binding Affinities of Compounds for the PPAR α, δ, γ Receptors are Assessed Using Scintillation Proximity Assay (SPA) Technology.
Biotinylated oligonucleotide(DR2) ^5′[…]^3′ (SEQ ID NO: 1) is used for binding of receptors to Yttrium silicate streptavidin-coated SPA beads (Perkin Elmer). The PPAR α, δ, γ and Retinoid X Receptor (RXR) α receptors (endogenously expressed as heterodimers) are cell lysates from Baculovirus expression systems in Sf9 cells. […] Non-specific binding is determined in the presence of 10000 nM unlabeled GW2331 (Kliewer, S. A. et al Proc. Natl. Acad. Sci. USA (1997), 94: 4318-4323) for the alpha and delta receptors and 2-methyl-2-[4-[3-[propyl[(5-pyridin-2-ylthiophen-2-yl)sulfonyl]amino]-propyl]phenoxy]propanoic (WO 2004/073606) for the gamma receptor. […]

Structures are written as SMILES.

The Ki is a measure of affinity in units of concentration, obtained from inhibition or displacement. For the molecule `CCCc1c(NC(=O)CC(C)(C)C(=O)[O-])cccc1OCCCOc1cc(O)c(-c2ccc(F)cc2)cc1CC.[Na+]` [Example 2, Sodium 4-[[3-[3-[2-ethyl-4-(4-fluorophenyl)-5-hydroxy-phenoxy]propoxy]-2-propyl-phenyl]amino]-2,2-dimethyl-4-oxo-butanoate], the Ki was ~617 nM.
